# Data as given in publication PMC12888920, “MMP-9 regulates disulphide isomerase activity of TGM2 to enhance fusion glycoprotein-mediated syncytium formation of respiratory syncytial virus” (Protein & Cell, 2025).
# Key:
# [1] = tested on: RSV A2; assay: Viral inhibition (FFA) in RSV A2-infected HEp-2 cells treated with TGM2 inhibitors; assay type: cell-based, Respiratory syncytial virus; conditions: HEp-2, RSV A2; ZED-1227 60–10, Cystamine 200–22.2, Bacitracin 500–50, E64FC26 0.2–0.05, ML359 10–1.1 µmol/L
# Experimental: (§1) Figure 7. MMP-9-mediated TGM2 cleavage potentiates RSV–host interaction. (A) Cytotoxicity profiling. Dose-response curves of TGM2 inhibitors (ZED-1227, Cystamine, Bacitracin, E64FC26, ML359) in HEp-2 cells (72 h treatment). Viability was assessed by CellTiter-Glo assay. Data normalized to untreated controls. mean ± SD, n = 3. (B) Antiviral efficacy. Viral inhibition (FFA) in RSV A2-infected HEp-2 cells treated with TGM2 inhibitors at threefold dilution gradients: ZED-1227 (60–10 µmol/L), Cystamine (200–22.2 µmol/L), Bacitracin (500–50 µmol/L), E64FC26 (0.2–0.05 µmol/L), and ML359 (10–1.1 µmol/L). DMSO as vehicle control. mean ± SD, n = 3. (C) TGM2–F protein interaction. Co-IP analysis in HEK293T cells co-expressing TGM2 and RSV F (48 h). Immunoblots were probed with anti-TGM2, anti-F, or IgG control. Blots represent three independent experiments. (D) Binding kinetics. BLI quantification of TGM2–DS-Cav1 (RSV F prefusion conformation) interaction. The results represent three biological replicates. (E) Ternary complex formation. Co-IP of MMP-9-TGM2-F complex in HEK293T cells (48 h). GAPDH as loading control. Below the asterisk represents the objective band. Blots represent three independent experiments. (F) Impairing MMP-9/TGM2/RSV-F complex inhibits RSV infection. […] (G) Proteolytic enhancement. MMP-9-cleaved TGM2 (TGM2-44) enhances protein disulfide isomerase (PDI) activity was measured using reduced DS-Cav1. mean ± SD, n = 3. (H) Truncation functional analysis. Viral titers (FFA) in HEp-2 cells expressing MMP-9, TGM2, or cleavage fragments (TGM2-44/41) post RSV infection (MOI = 1, 72 hpi). mean ± SD, n = 3. (I) Syncytium rescue. Syncytia area quantification in TGM2 truncation-expressing cells (ImageJ software). mean ± SD, n = 3. (J) Subcellular redistribution. Confocal microscopy of HEp-2 cells co-expressing TGM2 truncations (HA/FLAG-tagged) and RSV F (72 hpi). Scale bar: 10 µm. Images represent three biological replicates. (K) F protein expression. Fluorescence intensity quantification of RSV F in (J) (ImageJ software). mean ± SD, n = 3. (L) Fusion competence assay. Syncytium formation in HEK293T cells co-expressing TGM2 truncations and RSV F/F-C37S/C69S mutants (48 h). Scale bar: 10 µm. Images represent three biological replicates. (M) Mutant validation. RSV F expression levels in (L) were quantified by ImageJ software. mean ± SD, n = 3. The results are representatively shown with three random experiments. The error bars indicate the mean ± SD of three technical replicates (n = 3). Statistical analysis: one-way ANOVA with Dunnett’s post hoc test (B, F, G, H, I, K, M); unpaired two-tailed Student’s t-test (F, H, I, K, M). *P < 0.05, **P < 0.01, ***P < 0.001; ns, not significant.
# [2] = Cell viability assay (CellTiter-Glo) in HEp-2 cells; assay type: cell-based; conditions: human
# Experimental: as §1, with “Statistical analysis: one-way ANOVA with Dunnett’s post hoc test (B, F, G, H, I, K, M); unpaired two-tailed Student’s t-test (F, H, I, K, M). *P < 0.05, **P < 0.01, ***P < 0.001; ns, not significant.” left out
# (§2) (B-C) Cytotoxicity profiles in HEp-2 (B) and HBEC (C) cells. […] Viability was assessed using the CellTiter-Glo assay (G7570, Promega). […]
# (§3) 95 Cell viability was evaluated using a CellTiter -Glo® Luminescent Cell Viability Assay 96 kit (G7571, Promega) according to the manufacturer’s instructions. […]
# [3] = target: RSV F protein (DS-Cav1); assay: Biolayer interferometry, TGM2 binding to RSV F protein (DS-Cav1); set-up: species or system Respiratory syncytial virus; conditions: BLI, biotinylated DS-Cav1 on SA biosensors
# Experimental: Figure 7. MMP-9-mediated TGM2 cleavage potentiates RSV–host interaction. (A) Cytotoxicity profiling. Dose-response curves of TGM2 inhibitors (ZED-1227, Cystamine, Bacitracin, E64FC26, ML359) in HEp-2 cells (72 h treatment). Viability was assessed by CellTiter-Glo assay. Data normalized to untreated controls. mean ± SD, n = 3. (B) Antiviral efficacy. Viral inhibition (FFA) in RSV A2-infected HEp-2 cells treated with TGM2 inhibitors at threefold dilution gradients: ZED-1227 (60–10 µmol/L), Cystamine (200–22.2 µmol/L), Bacitracin (500–50 µmol/L), E64FC26 (0.2–0.05 µmol/L), and ML359 (10–1.1 µmol/L). DMSO as vehicle control. mean ± SD, n = 3. (C) TGM2–F protein interaction. […] BLI quantification of TGM2–DS-Cav1 (RSV F prefusion conformation) interaction. […] MMP-9-cleaved TGM2 (TGM2-44) enhances protein disulfide isomerase (PDI) activity was measured using reduced DS-Cav1. mean ± SD, n = 3. […] Syncytia area quantification in TGM2 truncation-expressing cells (ImageJ software). mean ± SD, n = 3. […] Fluorescence intensity quantification of RSV F in (J) (ImageJ software). mean ± SD, n = 3. […] RSV F expression levels in (L) were quantified by ImageJ software. mean ± SD, n = 3. […]
# 271 TGM2) were quantified using a Sartorius Octet R4 system. […]
# 275 equilibration. MMP-9 (MCE) binding was assessed across two concentration ranges: […]
# 281 (Sartorius) at 20 µg/mL. TGM2 binding was evaluated across 0 –100 µM (7 […]
# [4] = tested on: RSV A2; assay: Antiviral activity (FFA) against RSV A2 in HEp-2 cells; assay type: cell-based; conditions: human respiratory syncytial virus
# Text: (§4) Figure 1. Antiviral activity of metalloproteinase inhibitors against RSV in vitro. (A) Experimental workflow for RSV A2 infection and compound treatment. (B) High-throughput screening of TargetMol L1100 library (246 host protease inhibitors targeting 10 pathways: MMPs, caspases, proteasomes, apoptosis regulators, cysteine proteases, gamma-secretase, autophagy modulators, serine proteases, DPP-4, and beta-secretase) using concentration gradients (1, 5, 10 µmol/L). HEp-2 cells were pretreated with compounds for 1 hour prior to RSV A2 infection (MOI = 0.1). Plaque formation was quantified at 72 hours post-infection (hpi) and normalized to DMSO controls. […] (G) Target overlap analysis of four MMP-9-targeting inhibitors. (H) Viral titers in supernatants of HEp-2 cells transfected with MMP-specific siRNAs (24 h) followed by RSV A2 infection (MOI = 1, 72 h). mean ± SD, n = 3. The results are representatively shown with three random experiments. The error bars indicate the mean ± SD of three technical replicates (n = 3). Statistical significance was determined by one-way ANOVA with Dunnett’s post hoc test: *P < 0.05, ***P < 0.001; ns, not significant. […]
# (§5) 110 overtly cytotoxic) underwent dose -response validation (0.00004 –10 μM) to generate
# (§6) 111 EC50 curves (GraphPad Prism 8.0) .
# (§7) 112 Evaluation of in vitro antiviral activity
# (§8) 113 Compound inhibitor treatments: HEp-2 cells (1.3×10⁴/well) or HBEC (1.8×10⁴/well)
# (§9) 114 were pretreated with test compounds for 1 h before RSV A2/B18537 infection
# (§10) 115 (MOI=0.1 or 0.3). Viral inhibition was quantified at 72 hpi via FFA. Fixed cells (4%
# (§11) 116 PFA) were permeabilized (0.3% Triton X-100), stained with anti-RSV-FITC
# (§12) 118 Fluorescent foci were normalized to nuclear counts (ImageJ software) for EC 50
# (§13) 119 determination via four-parameter logistic regression (GraphPad Prism 8.0). Data
# (§14) 120 represent triplicate experiments. […]
# [5] = tested on: RSV B18537; assay: Antiviral activity (FFA) against RSV B18537 in HEp-2 cells; assay type: cell-based; conditions: human respiratory syncytial virus
# Text: as §4
# (§15) 109 111813, MCE) and 0.1% DMSO vehicle. Primary hits (>50% CPE reduction + not
# as §5, §6, §7, §8, §9, §10, §11, §12, §13, §14
# [6] = tested on: RSV A2; assay: Antiviral activity (FFA) against RSV A2 in primary human bronchial epithelial cells (HBEC); assay type: cell-based; conditions: human respiratory syncytial virus, Epithelial cell
# Text: as §4, §7, §8, §9, §10, §11, §12, §13, §14
# [7] = tested on: RSV B18537; assay: Antiviral activity (FFA) against RSV B18537 in HBEC; assay type: cell-based; conditions: human respiratory syncytial virus
# Text: as §4, §7, §8, §9, §10, §11, §12, §13, §14
# [8] = tested on: RSV A2; assay: High-throughput antiviral screening of protease inhibitor library against RSV A2 in HEp-2 cells; assay type: cell-based, Respiratory syncytial virus; conditions: RSV A2, MOI = 0.1, 1, 5, 10 µmol/L, 72 hpi
# Text: Figure 1. Antiviral activity of metalloproteinase inhibitors against RSV in vitro. (A) Experimental workflow for RSV A2 infection and compound treatment. (B) High-throughput screening of TargetMol L1100 library (246 host protease inhibitors targeting 10 pathways: MMPs, caspases, proteasomes, apoptosis regulators, cysteine proteases, gamma-secretase, autophagy modulators, serine proteases, DPP-4, and beta-secretase) using concentration gradients (1, 5, 10 µmol/L). HEp-2 cells were pretreated with compounds for 1 hour prior to RSV A2 infection (MOI = 0.1). Plaque formation was quantified at 72 hours post-infection (hpi) and normalized to DMSO controls. […] (G) Target overlap analysis of four MMP-9-targeting inhibitors. (H) Viral titers in supernatants of HEp-2 cells transfected with MMP-specific siRNAs (24 h) followed by RSV A2 infection (MOI = 1, 72 h). mean ± SD, n = 3. The results are representatively shown with three random experiments. The error bars indicate the mean ± SD of three technical replicates (n = 3). Statistical significance was determined by one-way ANOVA with Dunnett’s post hoc test: *P < 0.05, ***P < 0.001; ns, not significant.
# 104 High-throughput antiviral screening
# 105 The L1100 protease inhibitor library (246 compounds; L1100, TargetMol) was
# 106 screened against RSV A2 in HEp -2 cells. Compounds (10 mM DMSO stocks) were
# 107 robotically dispensed 1 h pre -infection at final concentrations of 1, 5, 10 μM.
# 108 Infection rates (72 hpi) were normalized to PC786 (1 μM; positive control; HY -
# as §15, §5, §6, §7, §8, §9, §10, §11, §12, §13, §14
# [9] = tested on: HEp-2 cells; assay: Cell viability assay (CellTiter-Glo) in HEp-2 cells; assay type: cell-based
# Experimental: as §1, with “Statistical analysis: one-way ANOVA with Dunnett’s post hoc test (B, F, G, H, I, K, M); unpaired two-tailed Student’s t-test (F, H, I, K, M). *P < 0.05, **P < 0.01, ***P < 0.001; ns, not significant.” left out
# as §2, §3
# [10] = HEp-2, RSV A2, MOI = 0.1, 72 hpi, read-out: EC50
# [11] = HEp-2, RSV B18537, MOI = 0.1, 72 hpi, read-out: EC50
# [12] = HBEC, RSV A2, MOI = 0.3, 72 hpi, read-out: EC50
# [13] = HBEC, RSV B18537, MOI = 0.3, 72 hpi, read-out: EC50
molecule,measurement,setting,value
Bacitracin,inhibition of RSV replication (antiviral efficacy),[1],strong antiviral efficacy
CCC(CC)CNC(=O)Cn1cccc(NC(=O)[C@H](CC/C=C/C(=O)OC)NC(=O)c2cncn2C)c1=O [ZED-1227],CC50 at 72 h,[2],78700 nM
same,inhibition of RSV replication (antiviral efficacy),[1],did not inhibit RSV replication
TGM2: recombinant transglutaminase 2 protein used in BLI,Kd,[3],6310 nM
C[C@H]1c2cccc(O)c2C(=O)C2=C(O)[C@]3(O)C(=O)C(C(N)=O)=C(O)[C@@H](N(C)C)[C@@H]3[C@@H](O)[C@@H]21 [Doxycycline],EC50,[4]; [10],846 nM
same,EC50,[5]; [11],727 nM
same,EC50,[6]; [12],1300 nM
same,EC50,[7]; [13],811 nM
same,inhibition of RSV infection in HEp-2 cells,[8],significant dose-dependent inhibition
CCCCCCCC/C=C1\C=C(C(F)(F)F)c2cc(O)c(O)cc21 [E64FC26],CC50,[9],800 nM
same,inhibition of RSV replication (antiviral efficacy),[1],strong antiviral efficacy
CCOC(=O)C1(CCOc2ccccc2)CCN(Cc2ccc(O)c(Cl)c2)CC1 [ML359],CC50,[9],26100 nM
same,inhibition of RSV replication (antiviral efficacy),[1],strong antiviral efficacy
Cc1cnc(N2CC3(CCOCC3)C2)c(C(=O)Nc2ccc(C(=O)N3CCc4cc(C(=O)Nc5c(C)cccc5F)sc4-c4ccccc43)cc2)c1 [PC786],EC50,[4]; [10],2.6 nM
same,EC50,[5]; [11],32.9 nM
same,EC50,[6]; [12],45.5 nM
same,EC50,[7]; [13],47.1 nM
NCCSSCCN [Cystamine],CC50 at 72 h,[2],387000 nM
same,inhibition of RSV replication (antiviral efficacy),[1],did not inhibit RSV replication
CC(C)=CCc1c(O)c(CC=C(C)C)c2oc3c(O)ccc(O)c3c(=O)c2c1O [Gartanin],EC50,[4]; HEp-2,726 nM
same,EC50,[5]; HEp-2,738 nM
same,EC50,[6],625 nM
same,EC50,[7],733 nM
same,inhibition of RSV infection in HEp-2 cells,[8],significant dose-dependent inhibition
